Reference: US6706663B2, “Herbicidal 3-heterocyclic substituted benzisothiazole and benzisoxazole compounds” (Wyeth, priority 2000, dated 2004)

How the values were obtained:
GALAP (Galium aparine) [1] = assay: Postemergence herbicidal evaluation; type: in vivo
Summary of the method: (§1)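 Visual 0–9 injury scores versus control plants, covering stand, vigour, malformation, size, chlorosis and general appearance, taken four to five weeks post-spray and averaged over replicate tests. Plants were sprayed at roughly two weeks old and held on greenhouse benches.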

[2] = system: IPOHE (Ipomoea hederacea); assay: Preemergence herbicidal evaluation; type: in vivo, (L.) Jacq.; conditions: preemergence, rated 4-5 weeks after treatment
[3] = system: CYPSE (Cyperus serotinus); assay: Flooded paddy, preemergence weed control; type: in vivo, Rottb.; conditions: rated 3-4 weeks after treatment, 0-9 rating scale
Summary of the method: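 Seeds or propagules were planted 0.5 cm deep in silt loam and flooded to 1.5–3 cm. Compounds in 50/50 v/v aqueous/acetone were pipetted into the flood water at about 0.0080 to 0.1250 kg/ha. After 3–4 weeks in the greenhouse, effect was rated visually on a 0–9 scale versus untreated control.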

[4] = system: ABUTH (Abutilon theophrasti); assay: Preemergence herbicidal evaluation; type: in vivo, Medic.; conditions: preemergence, rated 4-5 weeks after treatment
[5] = system: ECHCG (Echinochloa crus-galli); assay: Postemergence herbicidal evaluation; type: in vivo, (L.) Beau
Summary of the method: as §1

[6] = system: TRZAWR (Wheat, Winter, cv Riband); assay: Preemergence herbicidal evaluation; type: in vivo, Triticum aestivum; conditions: preemergence, rated 4-5 weeks after treatment
Summary of the method: (§2)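 Preemergence soil spray, aq. acetone; greenhouse; visual 0–9 score vs control at 4–5 wk.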

[7] = system: CASOB (Cassia obtusifolia); assay: Postemergence herbicidal evaluation; type: in vivo, L.
Summary of the method: as §1

[8] = system: CHEAL (Chenopodium album); assay: Postemergence herbicidal evaluation; type: in vivo, L.
Summary of the method: as §1

[9] = system: AMBEL (Ambrosia artemisifolia); assay: Postemergence herbicidal evaluation; type: in vivo, L.
Summary of the method: as §1

ZEAMX (Corn, Field) = assay: Postemergence herbicidal evaluation; type: in vivo, Zea mays, L.
Summary of the method: as §1

[10] = system: GLXMAW (Soybean, Williams); assay: Postemergence herbicidal evaluation; type: in vivo, Glycine max, (L.) Merr. cv Williams
Summary of the method: as §1

[11] = system: ABUTH (Abutilon theophrasti); assay: Postemergence herbicidal evaluation; type: in vivo, Medic.
Summary of the method: as §1

ORYSAT (Rice, Tebonnet) [12] = assay: Preemergence herbicidal evaluation; type: in vivo, Oryza sativa, (L.) Tebonnet; conditions: preemergence, rated 4-5 weeks after treatment
GALAP (Galium aparine) [13] = assay: Preemergence herbicidal evaluation; type: in vivo; conditions: preemergence, rated 4-5 weeks after treatment
Summary of the method: as §2

[14] = system: CASOB (Cassia obtusifolia); assay: Preemergence herbicidal evaluation; type: in vivo, L.; conditions: preemergence, rated 4-5 weeks after treatment
Summary of the method: as §2

[15] = system: CHEAL (Chenopodium album); assay: Preemergence herbicidal evaluation; type: in vivo, L.; conditions: preemergence, rated 4-5 weeks after treatment
Summary of the method: as §2

[16] = system: AMBEL (Ambrosia artemisifolia); assay: Preemergence herbicidal evaluation; type: in vivo, L.; conditions: preemergence, rated 4-5 weeks after treatment
Summary of the method: as §2

ORYSAT (Rice, Tebonnet) [17] = assay: Postemergence herbicidal evaluation; type: in vivo, Oryza sativa, (L.) Tebonnet
Summary of the method: as §1

For “1-methyl-3-[3-(1,3-oxathiolan-2-yl)-1,2-benzisothiazol-5-yl]-6-(trifluoromethyl)uracil S′,S′-dioxide [Compound 32]”, the “Postemergence herbicidal rating, GALAP” value (GALAP (Galium aparine) [1]; rate 0.0320 kg/ha) was 2.0, the “Postemergence herbicidal rating, GALAP” value (GALAP (Galium aparine) [1]; rate 0.0620 kg/ha) was 6.0 and the “IPOHE preemergence herbicidal rating” value ([2]; Rate 0.0620 kg/ha) was 9.0. For the same compound, the “IPOHE preemergence herbicidal rating” value ([2]; Rate 0.1250 kg/ha) was 9.0, the “IPOHE preemergence herbicidal rating” value ([2]; Rate 0.2500 kg/ha) was 9.0 and the “herbicidal rating, CYPSE” value ([3]; rate 0.0320 kg/ha) was 0.0. For the same compound, the “ABUTH preemergence herbicidal rating” value ([4]; Rate 0.0620 kg/ha) was 9.0, the “ABUTH preemergence herbicidal rating” value ([4]; Rate 0.1250 kg/ha) was 9.0 and the “ABUTH preemergence herbicidal rating” value ([4]; Rate 0.2500 kg/ha) was 9.0. For the same compound, the “Postemergence herbicidal rating, ECHCG” value ([5]; rate 0.0320 kg/ha) was 3.0, the “Postemergence herbicidal rating, ECHCG” value ([5]; rate 0.0620 kg/ha) was 5.0 and the “TRZAWR preemergence herbicidal rating” value ([6]; Rate 0.0620 kg/ha) was 7.0. The “TRZAWR preemergence herbicidal rating” value ([6]; Rate 0.1250 kg/ha) was 8.0, the “TRZAWR preemergence herbicidal rating” value ([6]; Rate 0.2500 kg/ha) was 9.0 and the “Postemergence herbicidal rating, CASOB” value ([7]; rate 0.0320 kg/ha) was 7.0. For the same compound, the “Postemergence herbicidal rating, CASOB” value ([7]; rate 0.0620 kg/ha) was 9.0, the “Postemergence herbicidal rating, CHEAL” value ([8]; rate 0.0320 kg/ha) was 9.0 and the “Postemergence herbicidal rating, CHEAL” value ([8]; rate 0.0620 kg/ha) was 9.0. For the same compound, the “Postemergence herbicidal rating, AMBEL” value ([9]; rate 0.0320 kg/ha) was 9.0, the “Postemergence herbicidal rating, AMBEL” value ([9]; rate 0.0620 kg/ha) was 9.0 and the “Postemergence herbicidal rating, ZEAMX” value (ZEAMX (Corn, Field); rate 0.0320 kg/ha) was 5.5. For the same compound, the “Postemergence herbicidal rating, ZEAMX” value (ZEAMX (Corn, Field); rate 0.0620 kg/ha) was 5.5, the “Postemergence herbicidal rating, GLXMAW” value ([10]; rate 0.0320 kg/ha) was 8.0 and the “Postemergence herbicidal rating, GLXMAW” value ([10]; rate 0.0620 kg/ha) was 9.0. For the same compound, the “Postemergence herbicidal rating, ABUTH” value ([11]; rate 0.0320 kg/ha) was 9.0, the “Postemergence herbicidal rating, ABUTH” value ([11]; rate 0.0620 kg/ha) was 9.0 and the “ORYSAT preemergence herbicidal rating” value (ORYSAT (Rice, Tebonnet) [12]; Rate 0.0620 kg/ha) was 5.0. For the same compound, the “ORYSAT preemergence herbicidal rating” value (ORYSAT (Rice, Tebonnet) [12]; Rate 0.1250 kg/ha) was 7.5, the “ORYSAT preemergence herbicidal rating” value (ORYSAT (Rice, Tebonnet) [12]; Rate 0.2500 kg/ha) was 8.5 and the “GALAP preemergence herbicidal rating” value (GALAP (Galium aparine) [13]; Rate 0.0620 kg/ha) was 9.0. For the same compound, the “GALAP preemergence herbicidal rating” value (GALAP (Galium aparine) [13]; Rate 0.1250 kg/ha) was 9.0, the “GALAP preemergence herbicidal rating” value (GALAP (Galium aparine) [13]; Rate 0.2500 kg/ha) was 9.0 and the “CASOB preemergence herbicidal rating” value ([14]; Rate 0.0620 kg/ha) was 6.5. For the same compound, the “CASOB preemergence herbicidal rating” value ([14]; Rate 0.1250 kg/ha) was 8.0, the “CASOB preemergence herbicidal rating” value ([14]; Rate 0.2500 kg/ha) was 9.0 and the “CHEAL preemergence herbicidal rating” value ([15]; Rate 0.0620 kg/ha) was 9.0. The “CHEAL preemergence herbicidal rating” value ([15]; Rate 0.1250 kg/ha) was 9.0, the “CHEAL preemergence herbicidal rating” value ([15]; Rate 0.2500 kg/ha) was 9.0 and the “AMBEL preemergence herbicidal rating” value ([16]; Rate 0.0620 kg/ha) was 9.0. The “AMBEL preemergence herbicidal rating” value ([16]; Rate 0.1250 kg/ha) was 9.0, the “AMBEL preemergence herbicidal rating” value ([16]; Rate 0.2500 kg/ha) was 9.0 and the “Postemergence herbicidal rating, ORYSAT” value (ORYSAT (Rice, Tebonnet) [17]; rate 0.0320 kg/ha) was 5.0. For the same compound, the “Postemergence herbicidal rating, ORYSAT” value (ORYSAT (Rice, Tebonnet) [17]; rate 0.0620 kg/ha) was 5.5.
For `Cn1c(C(F)(F)F)cc(=O)n(-c2ccc3snc(C(SCCO)SCCO)c3c2)c1=O` [Compound 33, 1,2-benzisothiazole-3-carboxaldehyde, 5-[3,6-dihydro-3-methyl-2,6-dioxo-4-(trifluoromethyl)-1(2H)-pyrimidinyl]-, 3-[bis(2-hydroxyethyl)dithioacetal]], the “Postemergence herbicidal rating, GALAP” value (GALAP (Galium aparine) [1]; rate 0.0320 kg/ha) was 0.0, the “Postemergence herbicidal rating, GALAP” value (GALAP (Galium aparine) [1]; rate 0.0620 kg/ha) was 3.0 and the “IPOHE preemergence herbicidal rating” value ([2]; Rate 0.0620 kg/ha) was 0.0. For the same compound, the “IPOHE preemergence herbicidal rating” value ([2]; Rate 0.1250 kg/ha) was 5.0, the “IPOHE preemergence herbicidal rating” value ([2]; Rate 0.2500 kg/ha) was 5.0 and the “herbicidal rating, CYPSE” value ([3]; rate 0.0320 kg/ha) was 0.0. The “herbicidal rating, CYPSE” value ([3]; rate 0.1250 kg/ha) was 0.0, the “ABUTH preemergence herbicidal rating” value ([4]; Rate 0.0620 kg/ha) was 2.0 and the “ABUTH preemergence herbicidal rating” value ([4]; Rate 0.1250 kg/ha) was 9.0. For the same compound, the “ABUTH preemergence herbicidal rating” value ([4]; Rate 0.2500 kg/ha) was 9.0, the “Postemergence herbicidal rating, ECHCG” value ([5]; rate 0.0320 kg/ha) was 1.0 and the “Postemergence herbicidal rating, ECHCG” value ([5]; rate 0.0620 kg/ha) was 3.0. For the same compound, the “TRZAWR preemergence herbicidal rating” value ([6]; Rate 0.0620 kg/ha) was 0.0, the “TRZAWR preemergence herbicidal rating” value ([6]; Rate 0.1250 kg/ha) was 1.0 and the “TRZAWR preemergence herbicidal rating” value ([6]; Rate 0.2500 kg/ha) was 4.0. For the same compound, the “Postemergence herbicidal rating, CASOB” value ([7]; rate 0.0320 kg/ha) was 0.0, the “Postemergence herbicidal rating, CASOB” value ([7]; rate 0.0620 kg/ha) was 1.0 and the “Postemergence herbicidal rating, CHEAL” value ([8]; rate 0.0320 kg/ha) was 3.0. For the same compound, the “Postemergence herbicidal rating, CHEAL” value ([8]; rate 0.0620 kg/ha) was 7.0, the “Postemergence herbicidal rating, AMBEL” value ([9]; rate 0.0320 kg/ha) was 4.0 and the “Postemergence herbicidal rating, AMBEL” value ([9]; rate 0.0620 kg/ha) was 9.0. The “Postemergence herbicidal rating, ZEAMX” value (ZEAMX (Corn, Field); rate 0.0320 kg/ha) was 5.0, the “Postemergence herbicidal rating, ZEAMX” value (ZEAMX (Corn, Field); rate 0.0620 kg/ha) was 5.5 and the “Postemergence herbicidal rating, GLXMAW” value ([10]; rate 0.0320 kg/ha) was 5.0. The “Postemergence herbicidal rating, GLXMAW” value ([10]; rate 0.0620 kg/ha) was 5.5, the “Postemergence herbicidal rating, ABUTH” value ([11]; rate 0.0320 kg/ha) was 9.0 and the “Postemergence herbicidal rating, ABUTH” value ([11]; rate 0.0620 kg/ha) was 9.0. The “ORYSAT preemergence herbicidal rating” value (ORYSAT (Rice, Tebonnet) [12]; Rate 0.0620 kg/ha) was 0.0, the “ORYSAT preemergence herbicidal rating” value (ORYSAT (Rice, Tebonnet) [12]; Rate 0.1250 kg/ha) was 3.0 and the “ORYSAT preemergence herbicidal rating” value (ORYSAT (Rice, Tebonnet) [12]; Rate 0.2500 kg/ha) was 6.0. The “GALAP preemergence herbicidal rating” value (GALAP (Galium aparine) [13]; Rate 0.0620 kg/ha) was 3.0, the “GALAP preemergence herbicidal rating” value (GALAP (Galium aparine) [13]; Rate 0.1250 kg/ha) was 2.0 and the “GALAP preemergence herbicidal rating” value (GALAP (Galium aparine) [13]; Rate 0.2500 kg/ha) was 7.0. For the same compound, the “CASOB preemergence herbicidal rating” value ([14]; Rate 0.0620 kg/ha) was 0.0, the “CASOB preemergence herbicidal rating” value ([14]; Rate 0.1250 kg/ha) was 0.0 and the “CASOB preemergence herbicidal rating” value ([14]; Rate 0.2500 kg/ha) was 0.0. The “CHEAL preemergence herbicidal rating” value ([15]; Rate 0.0620 kg/ha) was 4.0, the “CHEAL preemergence herbicidal rating” value ([15]; Rate 0.1250 kg/ha) was 7.0 and the “CHEAL preemergence herbicidal rating” value ([15]; Rate 0.2500 kg/ha) was 9.0. For the same compound, the “AMBEL preemergence herbicidal rating” value ([16]; Rate 0.0620 kg/ha) was 2.0, the “AMBEL preemergence herbicidal rating” value ([16]; Rate 0.1250 kg/ha) was 4.0 and the “AMBEL preemergence herbicidal rating” value ([16]; Rate 0.2500 kg/ha) was 8.0. The “Postemergence herbicidal rating, ORYSAT” value (ORYSAT (Rice, Tebonnet) [17]; rate 0.0320 kg/ha) was 4.0 and the “Postemergence herbicidal rating, ORYSAT” value (ORYSAT (Rice, Tebonnet) [17]; rate 0.0620 kg/ha) was 5.0.
